{"source": "ChEMBL document CHEMBL5154747", "about": "“Discovery of new carbonic anhydrase IX inhibitors as anticancer agents by toning the hydrophobic and hydrophilic rims of the active site to encounter the dual-tail approach” (Eur J Med Chem, 2022)", "key": {"NCI-H23": {"test_system": "NCI-H23", "assay": "Anticancer activity against human NCI-H23 cells assessed as cell growth inhibition incubated for 48 hrs by SRB assay", "type": "functional", "conditions": "for CC50: read-out: LC50 (the source's name)"}, "SK-MEL-5 [1]": {"test_system": "SK-MEL-5", "assay": "Induction of apoptosis in human SK-MEL-5 cells assessed as caspase 9 activation incubated for 24 hrs by Western blotting analysis", "type": "functional, cell-based"}, "SK-MEL-5 [2]": {"test_system": "SK-MEL-5", "assay": "Induction of apoptosis in human SK-MEL-5 cells assessed as caspase 3 activation incubated for 24 hrs by Western blotting analysis", "type": "functional, cell-based"}, "SK-MEL-5 [3]": {"test_system": "SK-MEL-5", "assay": "Induction of ROS generation in human SK-MEL-5 cells assessed as increase in intracellular ROS level incubated for 1 hrs by H2DCFDA probe based fluorometry analysis relative to control", "type": "functional"}, "SK-MEL-5 [4]": {"test_system": "SK-MEL-5", "assay": "Cytotoxicity against human SK-MEL-5 cells assessed as inhibition of cell viability incubated for 72 hrs under hypoxia condition by MTT assay", "type": "functional, cell-based", "conditions": "SK-MEL-5, 72 h"}, "HCC 2998": {"test_system": "HCC 2998", "assay": "Cytotoxicity against human HCC 2998 cells assessed as inhibition of cell viability incubated for 72 hrs under hypoxia condition by MTT assay", "type": "functional, cell-based", "conditions": "HCC 2998, 72 h"}, "RXF 393": {"test_system": "RXF 393", "assay": "Cytotoxicity against human RXF 393 cells assessed as inhibition of cell viability incubated for 72 hrs under hypoxia condition by MTT assay", "type": "functional, cell-based", "conditions": "RXF 393, 72 h"}, "[5]": {"assay": "Cytotoxicity against human HEK293 cells assessed as inhibition of cell viability by MTT assay"}, "SK-MEL-5 [6]": {"test_system": "SK-MEL-5", "assay": "Induction of apoptosis in human SK-MEL-5 cells assessed as early apoptotic cells at 10 uM incubated for 24 hrs by Annexin-V/FITC and PI staining based flow cytometry analysis (reference value: 0.61 %)", "type": "functional"}, "SK-MEL-5 [7]": {"test_system": "SK-MEL-5", "assay": "Induction of apoptosis in human SK-MEL-5 cells assessed as late apoptotic cells at 10 uM incubated for 24 hrs by Annexin-V/FITC and PI staining based flow cytometry analysis (reference value: 0.26 %)", "type": "functional"}, "SK-MEL-5 [8]": {"test_system": "SK-MEL-5", "assay": "Induction of apoptosis in human SK-MEL-5 cells assessed as necrotic cells at 10 uM incubated for 24 hrs by Annexin-V/FITC and PI staining based flow cytometry analysis (reference value: 1.56 %)", "type": "functional"}, "SK-MEL-5 [9]": {"test_system": "SK-MEL-5", "assay": "Induction of cell cycle arrest in human SK-MEL-5 cells assessed as accumulation at pre G1 phase at 10 uM incubated for 24 hrs by FACSCalibur flow cytometry analysis (reference value: 2.43%)", "type": "functional"}, "SK-MEL-5 [10]": {"test_system": "SK-MEL-5", "assay": "Induction of cell cycle arrest in human SK-MEL-5 cells assessed as accumulation of diploid cells at G1 phase at 10 uM incubated for 24 hrs by FACSCalibur flow cytometry analysis (reference value: 69.23%)", "type": "functional"}, "SK-MEL-5 [11]": {"test_system": "SK-MEL-5", "assay": "Induction of cell cycle arrest in human SK-MEL-5 cells assessed as accumulation of diploid cells at G2/M phase at 10 uM incubated for 24 hrs by FACSCalibur flow cytometry analysis (reference value: 13.22%)", "type": "functional"}, "SK-MEL-5 [12]": {"test_system": "SK-MEL-5", "assay": "Induction of cell cycle arrest in human SK-MEL-5 cells assessed as accumulation of diploid cells at S phase at 10 uM incubated for 24 hrs by FACSCalibur flow cytometry analysis (reference value: 17.55%)", "type": "functional"}, "SK-MEL-5 [13]": {"test_system": "SK-MEL-5", "assay": "Induction of cell cycle arrest in human SK-MEL-5 cells assessed as cell aggregates at 10 uM incubated for 24 hrs by FACSCalibur flow cytometry analysis (reference value: 1.79%)", "type": "functional"}, "SK-MEL-5 [14]": {"test_system": "SK-MEL-5", "assay": "Induction of cell cycle arrest in human SK-MEL-5 cells assessed as cell debris at 10 uM incubated for 24 hrs by FACSCalibur flow cytometry analysis (reference value: 1.38%)", "type": "functional"}}, "note": "The source made the active and inactive calls. The rule behind the calls is not given here.", "data": [{"smiles": "Cc1nn(-c2ccccc2)cc1/C=N/Nc1nc(Nc2ccccc2)nc(Nc2ccc(S(N)(=O)=O)cc2)n1", "values": [{"measurement": "GI50", "setting": "NCI-H23", "value": 1.74, "unit": "µM"}, {"measurement": "CC50", "setting": "NCI-H23", "value": 7.5, "unit": "µM"}]}, {"smiles": "NS(=O)(=O)c1ccc(Nc2nc(N/N=C/c3ccccn3)nc(Nc3ccccc3)n2)cc1", "values": [{"measurement": "Activity", "setting": "SK-MEL-5 [1]", "value": "Active"}, {"measurement": "Activity", "setting": "SK-MEL-5 [2]", "value": "Active"}, {"measurement": "Activity", "setting": "SK-MEL-5 [3]", "value": 23, "unit": "%"}, {"measurement": "GI50", "setting": "NCI-H23", "value": 1.21, "unit": "µM"}, {"measurement": "CC50", "setting": "NCI-H23", "value": 8.41, "unit": "µM"}, {"measurement": "IC50", "setting": "SK-MEL-5 [4]", "value": 8.33, "unit": "µM"}, {"measurement": "IC50", "setting": "HCC 2998", "value": 1.93, "unit": "µM"}, {"measurement": "IC50", "setting": "RXF 393", "value": 3.11, "unit": "µM"}, {"measurement": "IC50", "setting": "[5]", "value": 45.6, "unit": "µM"}, {"measurement": "Activity", "setting": "SK-MEL-5 [6]", "value": 4.28, "unit": "%"}, {"measurement": "Activity", "setting": "SK-MEL-5 [7]", "value": 24.97, "unit": "%"}, {"measurement": "Activity", "setting": "SK-MEL-5 [8]", "value": 7.99, "unit": "%"}, {"measurement": "Activity", "setting": "SK-MEL-5 [9]", "value": 37.24, "unit": "%"}, {"measurement": "Activity", "setting": "SK-MEL-5 [10]", "value": 58.78, "unit": "%"}, {"measurement": "Activity", "setting": "SK-MEL-5 [11]", "value": 8.81, "unit": "%"}, {"measurement": "Activity", "setting": "SK-MEL-5 [12]", "value": 32.41, "unit": "%"}, {"measurement": "Activity", "setting": "SK-MEL-5 [13]", "value": 1.85, "unit": "%"}, {"measurement": "Activity", "setting": "SK-MEL-5 [14]", "value": 1.42, "unit": "%"}]}, {"smiles": "NS(=O)(=O)c1ccc(Nc2nc(N/N=C/c3ccc(C(F)(F)F)cc3)nc(Nc3ccccc3)n2)cc1", "values": [{"measurement": "GI50", "setting": "NCI-H23", "value": 1.95, "unit": "µM"}, {"measurement": "CC50", "setting": "NCI-H23", "value": 9.25, "unit": "µM"}]}, {"smiles": "CN(C)c1ccc(/C=N/Nc2nc(Nc3ccccc3)nc(Nc3ccc(S(N)(=O)=O)cc3)n2)cc1", "values": [{"measurement": "IC50", "setting": "RXF 393", "value": 7.21, "unit": "µM"}, {"measurement": "IC50", "setting": "[5]", "value": 39.8, "unit": "µM"}]}]}
